# According to PubChem BioAssay (NCI):
#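 Dose response: 5 concentrations. Exposure: 48 h. Format: 96-well plates. Endpoint: linear interpolation; highest concentration if not reached. Definition used: TGI = concentration required for complete inhibition of growth.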
# Experiments:
# Assay in all cases: NCI tumour cell line growth inhibition, 48 h
# NCI-H226 lung = system: NCI-H226 lung
# KM20L2 colon = system: KM20L2 colon
# UACC-62 melanoma = system: UACC-62 melanoma
# RXF-631 renal = system: RXF-631 renal
# OVCAR-5 ovarian = system: OVCAR-5 ovarian
# M19-MEL melanoma = system: M19-MEL melanoma
# M14 melanoma = system: M14 melanoma
# LOX IMVI melanoma = system: LOX IMVI melanoma
# HT29 colon = system: HT29 colon
# DLD-1 colon = system: DLD-1 colon
# HOP-62 NSCLC = system: HOP-62 NSCLC
# HL-60(TB) leukemia = system: HL-60(TB) leukemia
# CAKI-1 renal = system: CAKI-1 renal
# SW-620 colon = system: SW-620 colon
# SNB-78 CNS = system: SNB-78 CNS
# SNB-75 CNS = system: SNB-75 CNS
# RPMI-8226 leukemia = system: RPMI-8226 leukemia
# OVCAR-8 ovarian = system: OVCAR-8 ovarian
# A498 renal = system: A498 renal
# LXFL 529 NSCLC = system: LXFL 529 NSCLC
# SN12C renal = system: SN12C renal
# DMS 273 small cell lung = system: DMS 273 small cell lung
# NCI-H522 lung = system: NCI-H522 lung
# TK-10 renal = system: TK-10 renal
# XF 498 CNS = system: XF 498 CNS
# OVCAR-3 ovarian = system: OVCAR-3 ovarian
# U251 CNS = system: U251 CNS
# SR leukemia = system: SR leukemia
# MALME-3M melanoma = system: MALME-3M melanoma
# HCT-116 colon = system: HCT-116 colon
# MOLT-4 leukemia = system: MOLT-4 leukemia
# SF-268 CNS = system: SF-268 CNS
# SK-MEL-5 melanoma = system: SK-MEL-5 melanoma
# SF-295 CNS = system: SF-295 CNS
# EKVX NSCLC = system: EKVX NSCLC
# HOP-92 NSCLC = system: HOP-92 NSCLC
# RXF 393 renal = system: RXF 393 renal
# K-562 leukemia = system: K-562 leukemia
# COLO 205 colon = system: COLO 205 colon
# 786-0 renal = system: 786-0 renal
# SK-MEL-2 melanoma = system: SK-MEL-2 melanoma
# CCRF-CEM leukemia = system: CCRF-CEM leukemia
# NCI-H460 lung = system: NCI-H460 lung
# DMS 114 small cell lung = system: DMS 114 small cell lung
# NCI-H23 lung = system: NCI-H23 lung
# SF-539 CNS = system: SF-539 CNS
# HCT-15 colon = system: HCT-15 colon
# OVCAR-4 ovarian = system: OVCAR-4 ovarian
# UO-31 renal = system: UO-31 renal
# SK-OV-3 ovarian = system: SK-OV-3 ovarian
# KM12 colon = system: KM12 colon
# UACC-257 melanoma = system: UACC-257 melanoma
# A549 NSCLC = system: A549 NSCLC
# HOP-18 NSCLC = system: HOP-18 NSCLC
# SNB-19 CNS = system: SNB-19 CNS
# SK-MEL-28 melanoma = system: SK-MEL-28 melanoma
# IGROV1 ovarian = system: IGROV1 ovarian
# ACHN renal = system: ACHN renal
# HCC-2998 colon = system: HCC-2998 colon
smiles,measurement,setting,value
COc1ccc(C(c2ccc(C(C)C)cc(OC)c2=O)c2ccc(C(C)C)cc(OC)c2=O)cc1,TGI,NCI-H226 lung,32.3 µM
same,TGI,KM20L2 colon,27 µM
same,TGI,UACC-62 melanoma,28.1 µM
same,TGI,RXF-631 renal,34.8 µM
same,TGI,OVCAR-5 ovarian,34.3 µM
same,TGI,M19-MEL melanoma,27.1 µM
same,TGI,M14 melanoma,28 µM
same,TGI,LOX IMVI melanoma,31 µM
same,TGI,HT29 colon,22.7 µM
same,TGI,DLD-1 colon,19.6 µM
same,TGI,HOP-62 NSCLC,35.5 µM
same,TGI,HL-60(TB) leukemia,41.9 µM
same,TGI,CAKI-1 renal,33.3 µM
same,TGI,SW-620 colon,28.8 µM
same,TGI,SNB-78 CNS,27.3 µM
same,TGI,SNB-75 CNS,34 µM
same,TGI,RPMI-8226 leukemia,25.6 µM
same,TGI,OVCAR-8 ovarian,32.5 µM
same,TGI,A498 renal,31.7 µM
same,TGI,LXFL 529 NSCLC,28.1 µM
same,TGI,SN12C renal,30.3 µM
same,TGI,DMS 273 small cell lung,28 µM
same,TGI,NCI-H522 lung,27.8 µM
same,TGI,TK-10 renal,34.2 µM
same,TGI,XF 498 CNS,34.7 µM
same,TGI,OVCAR-3 ovarian,26 µM
same,TGI,U251 CNS,26.6 µM
same,TGI,SR leukemia,38.2 µM
same,TGI,MALME-3M melanoma,30.6 µM
same,TGI,HCT-116 colon,23.1 µM
same,TGI,MOLT-4 leukemia,31.3 µM
same,TGI,SF-268 CNS,26.5 µM
same,TGI,SK-MEL-5 melanoma,27.4 µM
same,TGI,SF-295 CNS,29.7 µM
same,TGI,EKVX NSCLC,26.6 µM
same,TGI,HOP-92 NSCLC,27.1 µM
same,TGI,RXF 393 renal,15 µM
same,TGI,K-562 leukemia,35.9 µM
same,TGI,COLO 205 colon,31.1 µM
same,TGI,786-0 renal,30.5 µM
same,TGI,SK-MEL-2 melanoma,29.3 µM
same,TGI,CCRF-CEM leukemia,38.5 µM
same,TGI,NCI-H460 lung,30 µM
same,TGI,DMS 114 small cell lung,24.7 µM
same,TGI,NCI-H23 lung,30.8 µM
same,TGI,SF-539 CNS,30.9 µM
same,TGI,HCT-15 colon,25.3 µM
same,TGI,OVCAR-4 ovarian,24.9 µM
same,TGI,UO-31 renal,27.3 µM
same,TGI,SK-OV-3 ovarian,32.3 µM
same,TGI,KM12 colon,26.4 µM
same,TGI,UACC-257 melanoma,29 µM
same,TGI,A549 NSCLC,24.6 µM
same,TGI,HOP-18 NSCLC,40.1 µM
same,TGI,SNB-19 CNS,29.3 µM
CCOC(=O)C1C(c2ccccc2)=C(c2ccccc2)C(c2ccccc2)=C1c1ccccc1,TGI,NCI-H226 lung,> 60.1 µM
same,TGI,KM20L2 colon,> 100 µM
same,TGI,UACC-62 melanoma,60.9 µM
same,TGI,RXF-631 renal,> 100 µM
same,TGI,OVCAR-5 ovarian,> 100 µM
same,TGI,M19-MEL melanoma,> 100 µM
same,TGI,M14 melanoma,> 100 µM
same,TGI,LOX IMVI melanoma,> 100 µM
same,TGI,HT29 colon,> 100 µM
same,TGI,DLD-1 colon,> 100 µM
same,TGI,HOP-62 NSCLC,33.3 µM
same,TGI,HL-60(TB) leukemia,> 100 µM
same,TGI,CAKI-1 renal,> 100 µM
same,TGI,SK-MEL-28 melanoma,> 100 µM
same,TGI,SW-620 colon,> 100 µM
same,TGI,IGROV1 ovarian,> 70.2 µM
same,TGI,SNB-78 CNS,> 91.6 µM
same,TGI,SNB-75 CNS,32.1 µM
same,TGI,RPMI-8226 leukemia,> 100 µM
same,TGI,OVCAR-8 ovarian,> 72.7 µM
same,TGI,A498 renal,57.1 µM
same,TGI,LXFL 529 NSCLC,> 100 µM
same,TGI,SN12C renal,> 83.6 µM
same,TGI,DMS 273 small cell lung,> 100 µM
same,TGI,NCI-H522 lung,98.1 µM
same,TGI,TK-10 renal,57.4 µM
same,TGI,XF 498 CNS,> 56.8 µM
same,TGI,OVCAR-3 ovarian,68.7 µM
same,TGI,U251 CNS,55.7 µM
same,TGI,SR leukemia,> 100 µM
same,TGI,MALME-3M melanoma,> 91.7 µM
same,TGI,HCT-116 colon,> 76.6 µM
same,TGI,MOLT-4 leukemia,> 100 µM
same,TGI,SF-268 CNS,> 100 µM
same,TGI,ACHN renal,> 82.2 µM
same,TGI,SK-MEL-5 melanoma,> 100 µM
same,TGI,SF-295 CNS,69.8 µM
same,TGI,EKVX NSCLC,> 100 µM
same,TGI,HOP-92 NSCLC,50.7 µM
same,TGI,RXF 393 renal,40.4 µM
same,TGI,HCC-2998 colon,> 100 µM
same,TGI,K-562 leukemia,> 100 µM
same,TGI,COLO 205 colon,> 100 µM
same,TGI,786-0 renal,55.8 µM
same,TGI,SK-MEL-2 melanoma,> 82.3 µM
same,TGI,CCRF-CEM leukemia,> 100 µM
same,TGI,NCI-H460 lung,> 100 µM
same,TGI,DMS 114 small cell lung,> 100 µM
same,TGI,NCI-H23 lung,> 100 µM
same,TGI,SF-539 CNS,91 µM
same,TGI,HCT-15 colon,> 100 µM
same,TGI,OVCAR-4 ovarian,> 100 µM
same,TGI,UO-31 renal,> 93.7 µM
same,TGI,SK-OV-3 ovarian,49 µM
same,TGI,KM12 colon,> 100 µM
same,TGI,UACC-257 melanoma,> 100 µM
same,TGI,A549 NSCLC,97.4 µM
same,TGI,HOP-18 NSCLC,82.4 µM
same,TGI,SNB-19 CNS,40.3 µM
